Experiments:
ADAMTS5 = ADAMTS5 (Homo sapiens (Human), UniProt Q9UNA0); settings: previous studies; cited from earlier work
[1] = test system: acute ischemia/reperfusion model; settings: administered during reperfusion; cited from earlier work
[2] = test system: ADAMTS1, -5, -8, versican, aggrecan, HAS-1, HAS-2, TIMP-3 and MT4-MMP mRNA; assay: Myocardial mRNA expression of other ADAMTS, proteoglycans and modulators (qRT-PCR) in aortic banding rats; format: in vivo, rat; settings: AB-rats, PPS-treatment vs vehicle
Method: Three days after AB, rats were stratified by the gradient over the stenosis to ensure similar degree of cardiac stress. Two and two stratified rats were randomized to either 6 mg/kg of the sulfated polysaccharide sodium pentosan polysulfate (PPS) (Interfarm AS, Norway) or vehicle (0.9% NaCl) injected subcutaneously every third day. […] Six weeks after AB or sham operation, the rats were examined by echocardiography and postmortem analysis, performed by experienced investigators (IS, JMA) blinded to treatment group.
In addition, mRNA levels of proteins known to modulate ADAMTS activity or versican function were measured; tissue inhibitor of metalloprotease (TIMP)-3, hyaluronic acid (HA) synthase 1 and 2, and membrane-type (MT)4-MMP, while mRNA levels of ADAMTS1, -4, and versican were quantified in NFB and NCM.
Total RNA was isolated from the left ventricle in AB rats, neonatal rat cardiomyocytes and fibroblasts (RNeasy mini kit, Qiagen, Valencia, Calif.). […] The results were detected on an ABI PRISM 7900 Sequence Detection System (Applied Biosystems, CA).

ADAMTS4 = ADAMTS4 (Homo sapiens (Human), UniProt O75173); settings: previous studies; cited from earlier work
MT4-MMP mRNA = MT4-MMP mRNA level (qRT-PCR) in MI rats; format: in vivo, rat; settings: PPS-treatment
Method: (§1) At day 0 to 3 (median 2) after surgery, infarct size was quantified by echocardiography using the Vevo2100 system (Visualsonics Inc, Canada) and magnetic resonance imaging (MRi) using a 9.4 T/210 mm/ASR horizontal bore magnet (Agilent Technologies, Inc., USA). Initially, echocardiography was performed to select moderate to large infarcts ranging approximately 40 to 50%. Thereafter, infarct sizes were exactly measured by late-enhancement gadolinium MRi analyses (Bohl S., et al. American Journal of Physiology, 2009; 296 (4): H1200-H1208) and stratified into small infarcts (stratum 1: <43%, stratum 2: 43-48%), and large infarcts (stratum 3: 48-53%, stratum 4: >53%). The rats in each MI stratum and sham group were randomized to receive intervention or control treatment. The intervention group was treated with 6 mg/kg of sodium PPS (Interfarm AS, Norway), while the control group received vehicle (0.9% NaCl), both injected subcutaneously every third day starting from post-operative day 8-10.
(§2) The mRNA levels of the ADAMTS versicanases ADAMTS1, -4, -5, -8, and -20 (Shiomi T, et al. Pathology International 2010; 60(7):477-96), versican, aggrecan, syndecan-4, tissue inhibitor metalloprotease (TIMP)-3, and membrane-type (MT)4-MMP, were quantified in rat left ventricle by qRT-PCR, as previously described in Example 1.

versican = assay: Versican DPEEAE fragments (immunoblotting) in MI rats; format: in vivo, rat; settings: PPS-treatment
Method: as §1
Fractional protein lysates from myocardium of rats having undergone MI treated with PPS or vehicle were extracted as previously described in Example 1 and Didangelos et al. (Journal of Biological Chemistry 2012 Jun. 1; 287(23):19341-5). Protein concentrations were measured by western blotting as previously described in Example 1. […]

TIMP-3 mRNA = TIMP-3 mRNA level (qRT-PCR) in MI rats; format: in vivo, rat; settings: PPS-treatment
Method: as §1, §2

Chain of ADAMTS4 (O75173 213-837, species assumed): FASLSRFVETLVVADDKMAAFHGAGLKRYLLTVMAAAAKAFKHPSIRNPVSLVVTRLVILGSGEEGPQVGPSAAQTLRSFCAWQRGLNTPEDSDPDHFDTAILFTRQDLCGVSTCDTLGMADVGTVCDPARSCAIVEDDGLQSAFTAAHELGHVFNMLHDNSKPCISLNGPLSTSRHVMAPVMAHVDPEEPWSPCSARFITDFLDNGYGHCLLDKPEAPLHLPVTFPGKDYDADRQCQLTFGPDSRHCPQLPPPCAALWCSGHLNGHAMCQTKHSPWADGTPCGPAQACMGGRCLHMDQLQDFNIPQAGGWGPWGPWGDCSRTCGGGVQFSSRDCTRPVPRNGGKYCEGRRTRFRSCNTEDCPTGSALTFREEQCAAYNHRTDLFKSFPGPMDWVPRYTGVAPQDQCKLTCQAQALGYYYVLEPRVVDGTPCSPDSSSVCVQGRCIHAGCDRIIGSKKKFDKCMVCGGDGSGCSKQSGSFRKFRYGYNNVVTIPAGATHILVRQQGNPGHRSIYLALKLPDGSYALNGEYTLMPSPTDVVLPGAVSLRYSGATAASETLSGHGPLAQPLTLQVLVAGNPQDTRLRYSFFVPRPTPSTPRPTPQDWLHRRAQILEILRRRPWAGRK
Chain of ADAMTS5 (Q9UNA0 262-930, species assumed): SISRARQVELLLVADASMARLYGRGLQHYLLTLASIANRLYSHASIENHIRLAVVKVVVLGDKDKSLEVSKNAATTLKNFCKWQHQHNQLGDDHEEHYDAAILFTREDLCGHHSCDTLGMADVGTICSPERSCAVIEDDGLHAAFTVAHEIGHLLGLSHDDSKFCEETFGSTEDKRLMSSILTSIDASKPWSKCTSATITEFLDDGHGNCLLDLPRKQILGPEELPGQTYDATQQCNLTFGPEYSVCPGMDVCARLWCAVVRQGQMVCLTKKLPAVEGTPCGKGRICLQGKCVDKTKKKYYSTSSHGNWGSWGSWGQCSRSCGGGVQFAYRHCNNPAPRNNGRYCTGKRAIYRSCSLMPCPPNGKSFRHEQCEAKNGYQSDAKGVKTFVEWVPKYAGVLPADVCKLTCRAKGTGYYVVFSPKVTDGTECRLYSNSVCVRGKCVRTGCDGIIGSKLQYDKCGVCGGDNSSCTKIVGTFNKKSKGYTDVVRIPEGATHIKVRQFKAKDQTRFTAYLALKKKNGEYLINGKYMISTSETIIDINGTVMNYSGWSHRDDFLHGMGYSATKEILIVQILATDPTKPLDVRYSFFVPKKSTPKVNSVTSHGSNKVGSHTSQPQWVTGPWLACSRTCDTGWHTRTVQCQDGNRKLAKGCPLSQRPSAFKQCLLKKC

pentosan polysulfate [PPS]
aggrecanase activity of ADAMTS5 (ADAMTS5): inhibits
infarction size [1]: reduce infarction size
mRNA levels of ADAMTS1, -5, -8, versican, aggrecan, HAS-1, HAS-2, TIMP-3 and MT4-MMP [2]: not affected
aggrecanase activity of ADAMTS4 (ADAMTS4): inhibits
mRNA levels of MT4-MMP (MT4-MMP mRNA): decreased
versican DPEEAE fragments (versican): decreased
TIMP-3 level (TIMP-3 mRNA): did not change
